Reference: ChEMBL document CHEMBL3885861, “Open TG-GATES”

Organism: Rattus norvegicus
Assay: Open TG-GATES - Regimen: Single
Type: toxicity, organism-based, Sprague-Dawley
Set-up: regimen Single, gender Male, age 6 weeks
Settings: in vivo, po, 300 mg/kg, route gavage, dose level High; for APTT / Bas / Eos / Fbg / Hb / Ht / Lym / MCH / MCHC / MCV / Mono / Neu / PT / Plat / RBC / Ret / WBC: tissue Blood; for KIDNEY_L / KIDNEY_R / KIDNEY_TOTAL: tissue Kidney; for LIVER: tissue Liver; for A/G / ALP / ALT / AST / BUN / CRE / Ca / Cl / DBIL / GLC / IP / K / LDH / Na / PL / RALB / TBIL / TC / TG / TP / gamma-GTP: tissue Plasma

## C[C@]12CCC(=O)C=C1CC[C@@H]1[C@@H]2CC[C@@]2(C)[C@H]1CC[C@]2(C)O [METHYLTESTOSTERONE]
3 h
  TERMINAL_BW: 199.1 g
  APTT: 18.1 s
  Bas: 0%
  Eos: 0.8%
  Fbg: 279.8 mg/dL
  Hb: 13.1 g/dL
  Ht: 38.1%
  Lym: 74%
  MCH: 21.3 pg
  MCHC: 34.4%
  MCV: 62.1 fL
  Mono: 3.2%
  Neu: 21.2%
  PT: 12.9 s
  Plat: 116.5 x10_4/uL
  RBC: 614.2 x10_4/ul
  Ret: 8.5%
  WBC: 82.4 x10_2/uL
  KIDNEY_L: 0.9 g
  KIDNEY_R: 0.9 g
  KIDNEY_TOTAL: 1.8 g
  LIVER: 8.5 g
  A/G: 0.9
  ALP: 1496.8 IU/L
  ALT: 40 IU/L
  AST: 74.6 IU/L
  BUN: 10.6 mg/dL
  CRE: 0.2 mg/dL
  Ca: 10.6 mg/dL
  Cl: 105.4 meq/L
  DBIL: 0.012 mg/dL
  GLC: 188.2 mg/dL
  IP: 9.6 mg/dL
  K: 4.3 meq/L
  LDH: 66 IU/L
  Na: 140.8 meq/L
  PL: 135.2 mg/dL
  RALB: 2.5 g/dL
  TBIL: 0.05 mg/dL
  TC: 75 mg/dL
  TG: 41.2 mg/dL
  TP: 5.4 g/dL
  gamma-GTP: 1.2 IU/L
6 h
  TERMINAL_BW: 201.8 g
  APTT: 18.2 s
  Bas: 0%
  Eos: 0.8%
  Fbg: 274.8 mg/dL
  Hb: 12.9 g/dL
  Ht: 37.7%
  Lym: 76.4%
  MCH: 21.3 pg
  MCHC: 34.3%
  MCV: 62 fL
  Mono: 3%
  Neu: 19.6%
  PT: 13.4 s
  Plat: 114.3 x10_4/uL
  RBC: 608.4 x10_4/ul
  Ret: 7.9%
  WBC: 66.5 x10_2/uL
  KIDNEY_L: 0.9 g
  KIDNEY_R: 0.9 g
  KIDNEY_TOTAL: 1.7 g
  LIVER: 8.1 g
  A/G: 0.9
  ALP: 1589.4 IU/L
  ALT: 45 IU/L
  AST: 77.2 IU/L
  BUN: 9 mg/dL
  CRE: 0.2 mg/dL
  Ca: 10.6 mg/dL
  Cl: 107.8 meq/L
  DBIL: 0.016 mg/dL
  GLC: 181.8 mg/dL
  IP: 9.6 mg/dL
  K: 4.2 meq/L
  LDH: 67.8 IU/L
  Na: 141.6 meq/L
  PL: 120 mg/dL
  RALB: 2.5 g/dL
  TBIL: 0.054 mg/dL
  TC: 57.8 mg/dL
  TG: 40.8 mg/dL
  TP: 5.4 g/dL
  gamma-GTP: 1.2 IU/L
9 h
  TERMINAL_BW: 203.1 g
  APTT: 17.8 s
  Bas: 0%
  Eos: 1%
  Fbg: 269.8 mg/dL
  Hb: 12.7 g/dL
  Ht: 37.2%
  Lym: 74.4%
  MCH: 21.5 pg
  MCHC: 34.1%
  MCV: 62.9 fL
  Mono: 2.8%
  Neu: 21.8%
  PT: 13.7 s
  Plat: 105 x10_4/uL
  RBC: 592.4 x10_4/ul
  Ret: 8.5%
  WBC: 70.7 x10_2/uL
  KIDNEY_L: 0.9 g
  KIDNEY_R: 0.9 g
  KIDNEY_TOTAL: 1.8 g
  LIVER: 8.1 g
  A/G: 0.9
  ALP: 1500.8 IU/L
  ALT: 36.6 IU/L
  AST: 70.6 IU/L
  BUN: 7.8 mg/dL
  CRE: 0.2 mg/dL
  Ca: 10.5 mg/dL
  Cl: 107.6 meq/L
  DBIL: 0.02 mg/dL
  GLC: 182.4 mg/dL
  IP: 10.7 mg/dL
  K: 4.3 meq/L
  LDH: 59 IU/L
  Na: 142.4 meq/L
  PL: 103.2 mg/dL
  RALB: 2.5 g/dL
  TBIL: 0.06 mg/dL
  TC: 46.2 mg/dL
  TG: 49 mg/dL
  TP: 5.3 g/dL
  gamma-GTP: 1 IU/L
24 h
  TERMINAL_BW: 203 g
  APTT: 20.8 s
  Bas: 0%
  Eos: 1%
  Fbg: 267.4 mg/dL
  Hb: 13.1 g/dL
  Ht: 37.8%
  Lym: 83%
  MCH: 22 pg
  MCHC: 34.5%
  MCV: 63.7 fL
  Mono: 2.6%
  Neu: 13%
  PT: 13.8 s
  Plat: 116.9 x10_4/uL
  RBC: 593.2 x10_4/ul
  Ret: 7.7%
  WBC: 89.5 x10_2/uL
  KIDNEY_L: 0.9 g
  KIDNEY_R: 0.9 g
  KIDNEY_TOTAL: 1.8 g
  LIVER: 10.2 g
  A/G: 0.9
  ALP: 1864.8 IU/L
  ALT: 48.8 IU/L
  AST: 77.6 IU/L
  BUN: 16.8 mg/dL
  CRE: 0.2 mg/dL
  Ca: 10.9 mg/dL
  Cl: 107.8 meq/L
  DBIL: 0.034 mg/dL
  GLC: 185.2 mg/dL
  IP: 7.6 mg/dL
  K: 4.3 meq/L
  LDH: 71 IU/L
  Na: 142 meq/L
  PL: 126.6 mg/dL
  RALB: 2.6 g/dL
  TBIL: 0.032 mg/dL
  TC: 45.4 mg/dL
  TG: 238 mg/dL
  TP: 5.6 g/dL
  gamma-GTP: 1.2 IU/L
